Measurements as given in patent publication EP0133795B1 (THE McLEAN HOSPITAL CORPORATION, priority 1983, dated 1985).
Entries after “also recorded” stand apart in the source; their conditions may differ.

Assays:
stereotypic behavior = assay: Stereotypy behavior test (apomorphine or D-amphetamine induced); assay type: in vivo, mice
Method: Stereotypy tests were carried out by the method of A. Campbell et al, Neuropharmacol. 21, 953 (1982). Test mice were pretreated with Compound 26 (i.p. injection), then 15 min later apomorphine or D-amphetamine sulfate was injected i.p. The animals were observed every 10 min and rated for stereotypic behavior in comparison to controls.
Rating scale: • 0 = no stereotypy • 1 = discontinuous sniffing • 2 = continuous sniffing • 3 = continuous sniffing and jaw movements
The average total score per animal was obtained (maximum positive score = 18) over a 60-min period. A compound which depresses this score is considered to have properties of a neuroleptic with a potential for use as an antipsychotic agent. The results (see Table VIII) show a pronounced reduction of stereotypy, down to 24% of control.

[1] = mouse, in vivo
[2] = system: general motor activity of mice; assay: General locomotor activity of mice (Stoelting electronic activity monitor); assay type: in vivo, Balb/c mice; conditions: for In Vivo Inhibition of General Motor Activity: graded 0-5; for effect on motor activity at low doses: 10 mg/kg (19 µmol/kg) or below, 10 mg/kg
Method: The effect of intraperitoneal (i.p.) injections of test compounds on the general motor activity of mice during a 60-min period was determined in a Stoelting electronic activity monitor. Dose-response curves were obtained from which the half-maximally effective values were calculated and the results are shown in Table V.
The compounds were dissolved in 25% (vols.) propylene glycol in water and injected i.p. into Balb/c mice (18-24 g). Dose-response measurements were obtained for 6 animals per dose or time point. Activity was monitored for 60 min using a Stoelting Electronic Activity Monitor (EAM) apparatus to assess the general motor activity of the animals.
The general locomotor activity of mice was measured in the Stolting activity monitor apparatus during 60 min after an intraperitoneal (i.p.) injection of a test compound.

[3] = system: general motor activity of mice; assay: as above; assay type: in vivo, Balb/c mice; conditions: Mus musculus, ip, 1 h; i.p.; 60-min general motor activity vs vehicle-injected and uninjected controls; 8 animals per dose
[4] = Comparative brain/liver uptake of 14C-labeled compounds (Brain Penetration Index); conditions: for increase of 5-min BPI over GABA: 5 min after s.c. injection, relative to GABA; for time at which liver levels reach a maximum: s.c., mice
Method: The criterion used herein for measuring the extent to which a compound, from which the radical A is derived, crosses the blood-brain barrier is based on the uptake of this compound by the brain relative to its uptake by the liver. […] Measurements of the quantity of a compound present in brain and liver at 5 minutes after a subcutaneous (s.c.) injection were used to calculate a Brain Penetration Index (BPI), with the equation: [formula]
This is the amount of the compound present per gram of brain tissue as a percent of the amount per gram of liver tissue.
This procedure has the advantage that even for a sparingly soluble lipid ester, which tends to remain largely at the site of the injection and slowly diffuse into the circulation, its level in the liver will reflect the amount available rather than the initial dose injected.
The uptake of a ^14C-labeled compound into brain was compared with the uptake into liver of the same animal.
All determinations were carried out at 5 min after injection. The volumes of the injected doses into mice (body weight, 18-24 g) for the i.v., i.p., and s.c. doses were 0.15, 0.3 and 0.5 ml, respectively. […] Each tissue was homogenized in 8 ml of pyridine in a glass homogenizer.
Each labeled test compound was injected as a solution in 0.5 ml of saline (Compound 7) or in 25% propylene glycol in water (Compounds 1, 5, 6) subcutaneously (s.c.) into young adult Balb/c mice (18-24 g body weight). After 5 min (or longer) animals were sacrificed and the brain and liver removed, weighed and homogenized respectively in 8 ml and 10 ml of brain protein solvent (1 % (w/v) sodium dodecyl sulfate in 6 M urea and 19 mM EDTA, pH 7.4, 0.03 M phosphate). Aliquots (0.5 ml) of the homogenates were mixed with 10 ml of Aquasol 2 (New England Nuclear) and counted in a Beckman liquid scintillation counter. The total uptake of each compound per g brain and liver tissue was calculated. The proportion of uptake into brain as compared to liver (100%) of the same animal was designated as the Brain Penetration Index (BPI), expressed as a percentage typically at 5 min after injection.
Each of the ^14C-labeled Compounds 26, 28 and 30 were in 125 µl of the propylene glycol diluted with water up to 0.5 ml, and then injected subcutaneously into test Balb/c mice (20 ± 2 g weight). After 5 min the animals were sacrificed and the brain and liver were removed, weighed and homogenized in 8 ml and 10 ml of brain protein solvent, respectively. Next 0.5 ml aliquots were mixed with 10 ml of Aquasol 2 (New England Nuclear Corp., Boston, MA) and counted in a Beckman liquid scintillation counter. The data for the label in each tissue were used to calculate the total quantity of the compound present in brain and liver per gram of tissue. The ratio of the amount in brain as a percent of that present in liver at 5 min was taken as the Brain Penetration Index (BPI). Measurements at longer uptake times were also obtained to evaluate the accumulation of the compounds in the brain.

[5] = system: bicuculline-induced epileptic seizures; assay: Delay of onset of bicuculline-induced seizures (anticonvulsant activity); assay type: in vivo, mouse; conditions: for anticonvulsant properties: administered at doses of 30 mg/kg; for In Vivo Delay of Time of Onset of Bicuculline-induced seizures: graded 0-5
Method: In a second behavioral test, the ability of a substance to prevent or delay the onset of biculline-induced epileptic seizures was measured. […] At 24 hr after i.p. injection of the cholesteryl derivative at a dose of 30 mg/kg (64 pmol/kg), the onset of seizures was delayed by 30% after an acute i.p. injection of bicuculline at 0.3 mg/kg. […] The dexamethasone and butyl esters had no effect.
The compounds were also injected i.p. at 1, 6 and 24 hr before the administration of bicuculline (0.3 mg/kg) s.c. The latency to the onset of generalized tonic-clonic epileptic seizures and the protection against the lethality of bicuculline were measured and evaluated as a percent of the data for vehicle-injected controls. No significant changes were obtained at the 1 hr and 6 hr time points. At the 24 hr time, however, some compounds delayed while others accelerated the onset of seizures.
The effect of the compound to delay the onset of a bicuculline-induced seizures was evaluated.
The ability of a substance to delay the onset of bicuculline-induced epileptic seizures in the mouse was measured (Table X). […] At 24 hr after i.p. injection of the cholesteryl derivative (6) at a dose of 30 mg/kg (64 pmol/kg), the onset of seizures was delayed by 30% (as compared to saline controls) after an acute i.p. injection of bicuculline at 0.3 mg/kg. […] The dexamethasone and butyl esters had no effect on seizures in mice.

in vivo = conditions: mouse, sc
[6] = n-Octanol/water partition coefficient; assay type: physicochemical; conditions: 5 ml n-octanol / 5 ml water, stirring 18 hours; read-out: KOW: Octanol/Water Partition Coefficient (converted)
Method: A Partition Coefficient was defined by the equation: [formula] representing the amount of the ester taken up per ml of n-octanol relative to the amount of the same compound taken up per ml of water.
The n-octanol/water partition coefficients were obtained from measurements of the distribution of 1, 3, 5 and 6 pmol quantities of each ^14C-labeled compound into a mixture of 5 ml of n-octanol and 5 ml water. At each concentration, the amount of labeled compound in the aqueous and n-octanol phases was calculated from the amount of radioactive material present after stirring for 18 hours.

[7] = 188 μmol/kg s.c., 5 min, Balb/c mice, mean ± S.E.M. (3 measurements)
[8] = 200 μmol/kg s.c., 60 min, Balb/c mice
[9] = 360 μmol/kg s.c., 180 min, Balb/c mice
[10] = Table IX summary, 5-min Brain Penetration Index
[11] = 20 μmol/kg s.c., 60 min, Balb/c mice
[12] = 60 μmol/kg s.c., 240 min, Balb/c mice
[13] = 67 μmol/kg s.c., 5 min, Balb/c mice, mean ± S.E.M. (3 measurements)
[14] = 170 μmol/kg s.c., 60 min, Balb/c mice

## CC/C=C\C/C=C\C/C=C\CCCCCCCC(=O)OCC(COC(=O)CCCN)OC(=O)CCCN (stereo not shown) [Compound 26, 1-linolenoyl-2,3-(gamma-aminobutyroyl)propane-1,2,3-triol]
Stereotypic behavior; 170 μmole/kg i.p. pretreatment, D-amphetamine sulfate 3 mg/kg, total score over 60 min (max 18), n = 4
  Stereotypy score induced by D-Amphetamine Sulfate: 3.3 ± 0.9
Stereotypic behavior; 170 μmole/kg i.p. pretreatment, apomorphine 1 mg/kg, total score over 60 min (max 18), n = 4
  Stereotypy score induced by Apomorphine: 8 ± 3.6
Stereotypic behavior; 170 μmole/kg, D-amphetamine sulfate 3 mg/kg
  Stereotypy (% of control), D-Amphetamine Sulfate: 24 % of control
Stereotypic behavior; 170 μmole/kg, apomorphine 1 mg/kg
  Stereotypy (% of control), Apomorphine: 52 % of control
[1]
  level present in the brain at ED50: 2.1
[2]; Mus musculus, ip, 1 h, depression of locomotor activity at high doses, Figure 2
  ED50: 36 mg/kg
[2]
  In Vivo Inhibition of General Motor Activity: 4
  effect on motor activity at low doses: enhancing locomotor activity; also recorded: enhances motor activity
[2]; listed as monolinolenoyl-diGABA glyceride
  effect on motor activity at low doses: stimulating activity
[3]
  ED50: 69 µmol/kg
[4]; [7]
  (BRAIN): 3.0 ± 0.2 nmol/g
  (LIVER): 3.3 ± 0.2 nmol/g
  BPI: 90±13%
[4]; [8]
  (BRAIN): 2.4 nmol/g
  (LIVER): 2.9 nmol/g
  BPI: 87%
[4]; [9]
  (BRAIN): 9.4 nmol/g
  (LIVER): 5.5 nmol/g
  BPI: 170%
[4]
  increase of 5-min BPI over GABA: 90 fold
  time at which liver levels reach a maximum: 45 to 60 min
[4]; [10]
  BPI: 90
[5]
  anticonvulsant properties: only weak anticonvulsant properties
  In Vivo Delay of Time of Onset of Bicuculline-induced seizures: 4
In vivo; brain
  remaining at 4 h: 60%
In vivo; kidney
  remaining at 4 h: 10%
In vivo; liver
  remaining at 4 h: 30%
[6]
  logP at 18 h: 0.322

## CC/C=C\C/C=C\C/C=C\CCCCCCCC(=O)OCC(COC(=O)CCCN)OC(=O)CCCCCCC/C=C\C/C=C\C/C=C\CC (stereo not shown) [Compound 28, 1,2-dilinolenoyl-3-(gamma-aminobutyroyl)propane-1,2,3-triol]
[1]
  level present in the brain at ED50: 1.7
[2]
  In Vivo Inhibition of General Motor Activity: 4
[3]
  ED50: 43 µmol/kg
[4]; [11]
  (BRAIN): 1.4 nmol/g
  (LIVER): 3.1 nmol/g
  BPI: 44%
[4]; [12]
  (BRAIN): 7.1 nmol/g
  (LIVER): 18.3 nmol/g
  BPI: 39%
[4]; [13]
  (BRAIN): 5.9 ± 0.4 nmol/g
  (LIVER): 4.7 ± 0.4 nmol/g
  BPI: 127±8.3%
[4]; [14]
  (BRAIN): 6.0 nmol/g
  (LIVER): 8.8 nmol/g
  BPI: 68%
[4]
  increase of 5-min BPI over GABA: 127 fold
  time at which liver levels reach a maximum: 45 to 60 min
[4]; [10]
  BPI: 127
[5]
  anticonvulsant properties: only weak anticonvulsant properties
  In Vivo Delay of Time of Onset of Bicuculline-induced seizures: 5
[6]
  logP at 18 h: 0.82
